Measurements: paper PMC3912015, “Synthetic Multivalent Antifungal Peptides Effective against Fungi” (PLoS ONE, 2014)
≈ marks a conversion by molar mass, not a printed value. Bridge positions count the residues as written; N and C are the ends. Peptide text beside a SMILES is read from it. I, II: the chains in the order shown.

Experiments:
F. solani DM3782 = experiment: microbe, parasite or virus in culture; assay type: cell-based; conditions: 48 h
C. albicans ATCC 10231 = assay type: cell-based; conditions: Candida albicans, 6 h, 5.5 µM
Description: For all the experiments, unless otherwise stated, C. albicans ATCC 10231 strain was used. B4010 (1 mg/mL) was incubated with trypsin (enzyme:peptide ratio 1∶100) at 37°C. 20 µL aliquot of this mixture was withdrawn at various time intervals (0.5, 1, 2, 4 and 6 h) and mixed with 1 µL of trypsin inhibitor. The antifungal activity of the peptide was determined by adding this mixture to 180 µL of inoculum and monitoring the growth at OD600 for 24 h. Similar experiments performed in the presence of trypsin/trypsin inhibitor (without B4010) were used as a positive control. For assessing the antifungal activity in TF, the peptide was dissolved in freshly collected rabbit TF and incubated at 37°C for 6 h. After incubation, an equal volume of an overnight culture of C. albicans (∼10^6 CFU/mL) was mixed with peptides in tear fluid and incubated at 37°C for 24 h. The final concentrations of the peptide were at 4.4, 8.8 and 22 µM. A 100 µL aliquot of serial dilutions (10^2 or 10^3 times) of this mixture were inoculated on a SD agar plate and then incubated for 48 h at 37°C. […]
To study the effects of metal ions, the broth solution containing C. albicans (OD600 = 0.4–0.6) was adjusted to appropriate final concentrations of metal ions, incubated with 5.5 µM of B4010 for 6 h and the cell viability was determined as before after 48 h. […]

F. solani ATCC36031 = experiment: microbe, parasite or virus in culture; assay type: cell-based; conditions: ATCC36031, 48 h
C57BL6 wild type mice = experiment: In vivo acute toxicity
Description: Acute toxicity of B4010 was assessed with C57BL6 (6–8 weeks old) wild type mice. Two healthy wild type mice were chosen for each routes of administration. B4010 was delivered through intra-peritoneal (200 mg/kg) or (100 mg/kg) intra-venous routes. Two animals were used for each administration and monitored through 24/48 h to determine mortality, or signs of toxicity.

[1] = system: clinical isolates of C. albicans 2672R and C. albicans 1976R; experiment: MIC against two clinical isolates, with or without 5% human serum; assay type: cell-based; conditions: 48 h
Description: The yeast strains were cultivated and suspended in Sabouraud’s Dextrose (SD) broth diluted to one sixth at a starting OD600 = ∼0.08 in a flat-bottomed microtitre plate. A serial dilution of peptide in the same broth was mixed with the inoculum to give a final peptide concentration of 0.4–22 µM. The antifungal activity was assessed by monitoring the OD600 in cycles of 30 minutes and an orbital shaking at 100 rpm using an Infinite M200 microplate reader (Tecan Group Ltd., Switzerland) for 24/48 h at 37°C. Cultures without peptides were used as positive controls and broth alone or with 22 µM peptide served as negative controls. The minimum concentration required for complete inhibition was assessed by both visible observations as well as by measuring the OD600 and taken as the MIC. Each experiment was repeated in triplicates. For studying the effects of metal ions, SD broth was adjusted with appropriate concentrations of salts to yield a final concentration of 100 and 135 mM for NaCl and KCl and 0.5–2 mM for CaCl2 and MgCl2. MIC determinations were carried out as described above. C. albicans ATCC10231 cells and salts in broth were taken as a positive control. Salts alone (NaCl, KCl, and CaCl2 and MgCl2) in broth or with 22 µM peptide served as a negative control. The effect of 5% human serum on the activities of B4010 against two C. albicans clinical isolates was determined. The human male serum was centrifuged at 13,000 rpm for 10 mins in order to remove the lipids and the supernatant was collected. The MIC values against clinical isolates of C. albicans 2672R and C. albicans 1976R were determined both in standard medium (SD broth) as well as in standard medium containing 5% serum supernatant as before.

Compound `CC(C)[C@H](NC(=O)[C@H](CCCCN)NC(=O)[C@H](CCCNC(=N)N)NC(=O)CNC(=O)[C@@H](N)CCCNC(=N)N)C(=O)N[C@H](C(=O)N[C@@H](CCCNC(=N)N)C(=O)N[C@@H](CCCNC(=N)N)C(=O)NCCCC[C@H](NC(=O)[C@H](CCCNC(=N)N)NC(=O)[C@H](CCCNC(=N)N)NC(=O)[C@@H](NC(=O)[C@@H](NC(=O)[C@H](CCCCN)NC(=O)[C@H](CCCNC(=N)N)NC(=O)CNC(=O)[C@@H](N)CCCNC(=N)N)C(C)C)C(C)C)C(=O)NCCCC[C@H](NC(=O)[C@H](CCCCNC(=O)[C@H](CCCNC(=N)N)NC(=O)[C@H](CCCNC(=N)N)NC(=O)[C@@H](NC(=O)[C@@H](NC(=O)[C@H](CCCCN)NC(=O)[C@H](CCCNC(=N)N)NC(=O)CNC(=O)[C@@H](N)CCCNC(=N)N)C(C)C)C(C)C)NC(=O)[C@H](CCCNC(=N)N)NC(=O)[C@H](CCCNC(=N)N)NC(=O)[C@@H](NC(=O)[C@@H](NC(=O)[C@H](CCCCN)NC(=O)[C@H](CCCNC(=N)N)NC(=O)CNC(=O)[C@@H](N)CCCNC(=N)N)C(C)C)C(C)C)C(=O)N[C@@H](CCCCN)C(=O)O)C(C)C` [B4010] (I: H-RGRKVVRRKKK-OH / II: H-RGRKVVRRK / III: H-RGRKVVRR / IV: H-RGRKVVRR; amide I:9-IV:C, I:10-II:C, II:9-III:C; N-terminus and C-terminus assumed) has an MIC (F. solani DM3782) of 1.4 µM (≈ 6.39 µg/mL), a viable cells (C. albicans ATCC 10231) of 40% and an MIC (F. solani ATCC36031) of 1.4 µM (≈ 6.39 µg/mL). The acute toxicity (C57BL6 wild type mice; IP 200 mg/kg) was “no sign of mortality, morbidity or toxicity”, the acute toxicity (C57BL6 wild type mice; IV 100 mg/kg) was “no sign of mortality, morbidity or toxicity” and the MIC [1] was 0.37 µM (≈ 1.69 µg/mL).
